Data: patent publication US7534426B2, “Glutenase enzyme assays” (The Board of Trustees of the Leland Stanford Junior …, priority 2004, dated 2009)
Read-outs that look alike come from different tables or passages of the source. Ends that are not written are not given here.

B1: PEP: Flavobacterium meningosepticum prolyl endopeptidase, purchased or prepared from recombinant E. coli (protein, UniProt P27028 21-705, looked up)
Prolyl endopeptidase: QNSNVLKYPETKKVSHTDTYFGTQVSDPYRWLEDDRAEDTKAWVQQEVKFTQDYLAQIPFRDQLKKQLMDIWNYEKISAPFKKGKYTYFSKNDGLQAQSVLYRKDAAGKTEVFLDPNKFSEKGTTSLASVSFNKKGTLVAYSISEGGSDWNKIIILDAETKKQLDETLLDVKFSGISWLGDEGFFYSSYDKPKEGSVLSGMTDKHKVYFHKLGTKQSQDELIIGGDKFPRRYIGAYVTDDQRYLVVSAANATNGNELYIKDLKNKTDFIPIITGFDSNVNVADTDGDTLYLFTDKDAPNKRLVKTTIQNPKAETWKDVIAETSEPLEINTGGGYFFATYMKDAIDQVKQYDKNGKLVRAIKLPGSGNASGFGGEKTEKDLYYSFTNYITPPTIFKYNVTTGNSEVYQKPKVKFNPENYVSEQVFYTSSDGTKIPMMISYKKGLKKDGKNPTILYSYGGFNISLQPAFSVVNAIWMENGGIYAVPNIRGGGEYGKKWHDAGTKMQKKNVFNDFIAAGEYLQKNGYTSKEYMALSGRSNGGLLVGATMTMRPDLAKVAFPGVGVLDMLRYNKFTAGAGWAYDYGTAEDSKEMFEYLKSYSPVHNVKAGTCYPSTMVITSDHDDRVVPAHSFKFGSELQAKQSCKNPILIRIETNAGHGAGRSTEQVVAENADLLSFALYEMGIKSLK

Tests used:
[1] = In vitro digestion of gliadin peptides with gastric and pancreatic enzymes (PTCtCE); assay type: in vitro ADME; conditions: pH 7.04
Experimental: (§1) In vitro Digestion of Gliadin Peptides. The in vitro digestion of each peptide was performed as follows: 75 μM (final concentration) of peptide was combined with 32 μL of 0.03 M HCl, pepsin (1:100 w pepsin/w peptide) and water to give a volume of 104 μL. The reaction was carried out for 30 minutes at 37° C. and was stopped by the addition of 40 μL of 1M sodium phosphate/sodium bisphosphate (pH 7.04). Chymotrypsin (1:100 w/w), trypsin (1:100.7 w/w), elastase (1:200 w/w), and carboxypeptidase A (1:100 w/w) were then added to give a final reaction volume of 168 μL. The reaction mixture was incubated at 37° C. for the indicated time and then stopped by heating at 90° C. for 5 minutes. Alternatively, the peptide ([…]) was combined with rat intestinal brush border enzymes, where the final concentration of brush border aminopeptidase N was 100 μU/μL. The rat intestinal brush border was prepared as described (Ahnen et al., 1982) and the activity was measured by assaying continuously at 30° C. in 0.1 M Tris HCl, pH 8.0, containing 1 mM Leu-pNA [extinction coefficient at 410 nm (ε410)=8,800 M^−1/cm^−1] in 1% dimethyl sulfoxide to improve solubility. In some reactions prolyl endopeptidase was also added at a final concentration of 100 μU/μL. The reaction mixture was analyzed by reverse phase HPLC on a Vydac 218MS54 column (4.6 mm inner diameter×15 cm).
(§2) Digestive resistance of gliadin peptides and effect of PEP. The gliadin peptides P2-P8 (Table 1) were incubated with pepsin, trypsin, chymotrypsin, carboxypeptidase A, and elastase (PTCtCE) and purified rat intestinal brush border membranes (BBM) as previously detailed (Shan et al., 2002) to assess their resistance to digestion. […] Peptides P2, P3, P5 contain one or more epitopes from α-gliadin, whereas P7 and P8 carry γ-gliadin epitopes. P4 is believed to stimulate the innate immune system, and P6 has macrophage stimulating activity.

[2] = In vitro digestion of gliadin peptides with brush border membranes; assay type: in vitro ADME, rat
Experimental: as §1, §2

[3] = In vitro digestion with brush border membranes supplemented with PEP; assay type: in vitro ADME; conditions: rat, kidney or brush border membranes, BBM plus 100 μU/μL PEP, 37° C.
Experimental: as §1, with “The rat intestinal brush border was prepared as described (Ahnen et al., 1982) and the activity was measured by assaying continuously at 30° C. in 0.1 M Tris HCl, pH 8.0, containing 1 mM Leu-pNA [extinction coefficient at 410 nm (ε410)=8,800 M^−1/cm^−1] in 1% dimethyl sulfoxide to improve solubility. In some reactions prolyl endopeptidase was also added at a final concentration of 100 μU/μL.” left out
Given the stability of gliadin peptides to intestinal peptidases and initial results indicating PEP is active against α-gliadin epitopes, the efficacy of in vitro digestion with PEP was examined. To quantify the incremental effect of PEP, we incubated the gliadin peptides with purified brush border membranes, supplemented with 100 μU/μL of PEP for 1 or 4 hours at 37° C.

[4] = test system: intact rat intestine co-perfused with prolyl endopeptidase (PEP); assay type: in vivo, Sprague-Dawley rats; conditions: co-perfused with 50 μM P5; ~190 μU/μL; ca. 1:5 weight ratio PEP:P5
From the text: In vivo Rat Intestinal Perfusion. Our procedure for in vivo intestinal perfusion of peptides in rats was modified from the Smithson and Gray procedure as follows: Sprague-Dawley rats, 250-350 g were anesthetized with isoflurane, the abdomen opened, the ligament of Treitz (duodenal-jejunal junction) identified and polyethylene catheters [2.5 mm outer diameter×1 mm inner diameter] were installed with the proximal infusion catheter placed 5 cm beyond the ligament of Treitz and the collection catheter positioned 20 cm distally. Animal core temperature was monitored to be at 37° C. by rectal thermometer. Peptides for intra-intestinal perfusion were 1 mM GLGG, 0.1 mM P3, 0.1 mM P4, 0.1 mM P5, 0.1 mM P8, 0.1 mM P9, and 0.1 mM P10. […]
In a separate experiment, pepsin, trypsin and chymotrypsin digested gliadin (Sigma, St. Louis, Mo.) was perfused at 2 mg/mL along with 0.05 mM P5 and 41.7 […] PEP (˜190 μU/μL) to determine the effect of smaller, more accessible peptide fragments on P5 digestion. The perfusion effluent was collected, immediately frozen and subsequently analyzed by reverse phase HPLC on a Vydac 218MS54 column (4.6 mm inner diameter×15 cm). The rate of substrate disappearance for the peptides was calculated as previously detailed (Smithson and Gray, 1977). […]

Molecule | metabolised at 4 h, 75 µM [1] [%] | metabolised at 1 h, 75 µM [2] [%] | metabolised at 4 h, 75 µM [2] [%] | also measured
VSFQQPQQQYPSSQ [Peptide P6, VSFQQPQQQYPSSQ] | 48 | 97 | 99 | 
FLQPQQPFPQQPQQPYPQQPQQPFPQ [Peptide P8] |  |  |  | metabolised at 4 h, 75 µM ([1]; 75 μM peptide, 37° C., 4 hr, NR = no reaction, read-out: percentage of parent material digested, PTCtCE 4 hr): 13%; metabolised at 4 h, 75 µM ([2]; rat, kidney or brush border membranes, 75 μM peptide, aminopeptidase N 100 μU/μL, 4 hr, read-out: percentage of parent material digested, BBM 4 hr): 19%; remaining at 4 h, 75 µM ([2]; rat, kidney or brush border membranes, 4 hours, read-out: starting material remaining after BBM exposure): ~70%; metabolised at 1 h, 75 µM ([3]; 1 hr, read-out: percentage of parent material digested, BBM + PEP 1 hr): > 99%; metabolised at 4 h, 75 µM ([3]; 4 hr, read-out: percentage of parent material digested, BBM + PEP 4 hr): > 99%
LQLQPFPQPQLPYPQPQLPYPQPQLPYPQPQPF [Peptide P5] | 10 | 20 | 28 | remaining at 4 h, 75 µM ([2]; rat, kidney or brush border membranes): ~70%
QLQPFPQPQLPY [Peptide P2, QLQPFPQPQLPY] | 1 | 71 | 94 | 
LGQQQPFPPQQPYPQPQPF [Peptide P4, LGQQQPFPPQQPYPQPQPF] |  | 77 | 98 | 
B1 |  |  |  | amount of PEP required to eliminate P5 under the perfusion conditions [4]: 41.7 µg/mL
